Results reported in ChEMBL document CHEMBL1212792, “Comparative pharmacokinetics of ceftaroline in rats, rabbits, and monkeys following a single intravenous or intramuscular injection” (Antimicrob Agents Chemother, 2010).
Values after ≈ are worked out from the molar mass of the structure shown.

Experiments:
[1] = %T>MIC in rabbit endocarditis model at 20 mg/kg, im administered as single dose measured after 12 hrs; format: functional; conditions: route intramuscular
[2] = %T>MIC human infected with Staphylococcus at 600 mg. im administered every 12 hrs; conditions: route intramuscular
[3] = %T>MIC in gram negative bacteria-infected neutropenic mouse model; format: functional
[4] = %T>MIC in Streptococcus pneumoniae-infected neutropenic mouse model; format: functional
[5] = system: Staphylococcus; assay: Antibacterial activity against Staphylococcus infected in human; format: functional
[6] = system: Staphylococcus; assay: Antibacterial activity against Staphylococcus; format: functional
[7] = %T>MIC in Staphylococcus aureus-infected neutropenic mouse model; format: functional
[8] = system: Streptococcus pneumoniae; assay: Antibacterial activity against Streptococcus pneumoniae; format: functional
[9] = %T>MIC in rabbit endocarditis model at 20 mg/kg, im administered as single dose measured after 8 hrs; format: functional; conditions: route intramuscular

For `CCO/N=C(\C(=O)N[C@@H]1C(=O)N2C(C(=O)[O-])=C(Sc3nc(-c4cc[n+](C)cc4)cs3)CS[C@H]12)c1nsc(NP(=O)(O)O)n1` [CEFTAROLINE FOSAMIL], the “fT>MIC” value [1] was 30.9%, the “fT>MIC” value [2] was 64.65% and the “fT>MIC” value [3] was 32%. For the same compound, the “fT>MIC” value [4] was 39%, the MIC [5] was 0.12 µg/mL (≈ 0.175 µM) and the MIC90 [6] was at most 2 µg/mL. For the same compound, the “fT>MIC” value [7] was 26%, the MIC90 [8] was at most 2 µg/mL and the “fT>MIC” value [9] was 46.3%.
